According to patent US4416826A, “Peresters and use thereof” (priority 1980, dated 1983):

Legend:
[1] = End group analysis of polystyrene by IR
Description: The polystyrene obtained from each of the above polymerizations is purified by repeated (four times) precipitation from benzene solution with methanol. Before each precipitation, the benzene solution is centrifuged to remove any insoluble material. The finely powdered polymer is filtered and dried under vacuum for two days. Known amounts of polymer are dissolved in benzene and the IR is taken (2000-1500 cm^-1) against benzene in 0.1-mm NaCl cells. The peaks at 1730 and 1670 cm^-1 for the carbonyl groups, caused by ester and benzophenones, respectively, are measured. […] The extinction coefficient of the carbonyl group at 1730 cm^-1 is compared with that of authenticated methyl benzoylbenzoate, which is used as a model to measure the concentration of the ester end groups in the polymer. From the concentration of the ester and the extinction resulting from the carbonyl group in the benzophenone, the absorption caused by the benzophenone that is present as the ester can be calculated. The value is subtracted from the absorption obtained at 1670 cm^- 1 for the polymer. From the resulting absorption, the concentration of benzophenone alone is estimated from the known extinction of benzophenone at that wavelength.

[2] = Photopolymerization of styrene, radical efficiency; settings: chloroform, [I] 5.00 × 10^-3 M
Description: (§1) Commercial styrene is washed three times with ice cold 2% NaOH solution followed by washing (four times) with distilled water. The styrene is dried over anhydrous CaCl2 and distilled under vacuum before use. The middle fraction of the distillate is used for polymerization. Solvents are purified by conventional means and distilled under N2 atmosphere.
(§2) The irradiations are carried out in degassed (three cycles of freeze-thaw under high vacuum) sealed 15-mm Pyrex tubes. The tubes are placed in a merry-go-round with a filtered UV source of 366 nm at the center and the yield of polymer is measured (below 10% conversion) gravimetrically. In all of the cases, tubes of the same size and same volume of solution are used. Number-average molecular weights of the purified polymers are determined by viscometry in a benzene solution. After the polymerization, an aliquot of 0.5 ml from each reaction tube is placed in 2-ml volumetric flasks. The solvent and excess monomer are evaporated under high vacuum for several hours. The remaining flask contents are dissolved in 0.5 ml of benzene or chloroform and the polymer is precipitated by adding 0.5 ml of n-hexane. The solution then is centrifuged and the IR of the centrifugate is measured to determine undecomposed perester. All of the above procedures are carried out as far as possible in the dark. The light intensity is measured by benzophenone-benzhydrol actinometry and observed to be Io =6.56×10^17 quanta/min on the average. The temperature of the tubes is maintained at 30° C.
The efficiency of the radicals to initiate polymerization, f, in the absence of any appreciable amount of chain transfer, can be defined as [formula] assuming bimolecular termination by the combination of two growing chains only [formula] whereas kd =rate of decomposition of perester in mol/liter sec. in the absence of monomer (a function of light intensity).

Solubility in benzene = format: physicochemical
[3] = Relative quantum yield of initiator decomposition in presence of monomer (IR at 1770 cm^-1); format: physicochemical; settings: for relative quantum yield φrel of decomposition: chloroform, initiator 2 × 10^-2 M
Description: as §1, §2
The decomposition of the initiator employed is followed by IR at 1770 cm^-1 (caused by the carbonyl adjacent to the peroxy group) against an appropriate solvent blank. The initiators employed are .rho.-benzoylperoxybenzoic acid tert-butylester (Ia) and prior art benzophenone peroxide. In addition, the above procedure is repeated except that methyl methacrylate is employed in place of styrene. Table IX below illustrates the relative quantum yield for the decomposition of the initiators in the recited amounts of monomers, assuming that the quantum yield for the decomposition of the perester and peroxide in the absence of any monomer is one.

[4] = Exp. 7: chloroform, [I] 5.0 × 10^-3 M, styrene 3.61 M
[5] = Exp. 8: chloroform, [I] 4.52 × 10^-3 M, styrene 4.33 M
[6] = Exp. 9: chloroform, [I] 4.94 × 10^-3 M, styrene 5.88 M

O=C(OOC(=O)c1ccc(C(=O)c2ccccc2)cc1)c1ccc(C(=O)c2ccccc2)cc1 [Peroxide, reference compound]
total number of benzophenones as end groups per chain, in words [1]: almost two | end groups per chain, Benzophenone [1, 4]: 0.54 | end groups per chain, Benzophenone as ester [1, 4]: 1.29 | end groups per chain, Total [1, 4]: 1.83 | end groups per chain, Benzophenone [1, 5]: 0.62 | end groups per chain, Benzophenone as ester [1, 5]: 1.30 | end groups per chain, Total [1, 5]: 1.92 | end groups per chain, Benzophenone [1, 6]: 0.72 | end groups per chain, Benzophenone as ester [1, 6]: 1.36 | end groups per chain, Total [1, 6]: 2.08 | Average degree of polymerization ([2]; [M] 3.61 M): 159.6 | Radical efficiency f ([2]; [M] 3.61 M): 0.33 | Rp × 10^5 ([2]; [M] 3.61 M): 1.07 mole/liter sec | φrel ([2]; [M] 3.61 M): 0.08 | Average degree of polymerization ([2]; [M] 4.33 M): 155.8 | Radical efficiency f ([2]; [M] 4.33 M): 0.33 | Rp × 10^5 ([2]; [M] 4.33 M): 1.04 mole/liter sec | φrel ([2]; [M] 4.33 M): 0.08 | Average degree of polymerization ([2]; [M] 5.88 M): 372.9 | Radical efficiency f ([2]; [M] 5.88 M): 0.26 | Rp × 10^5 ([2]; [M] 5.88 M): 1.72 mole/liter sec | φrel ([2]; [M] 5.88 M): 0.08 | solubility in benzene (Solubility in benzene): insoluble in benzene | effect of styrene on quantum yield of decomposition, in words [3]: the quenching effect being greater with the peroxide than the perester | relative quantum yield φrel of decomposition ([3]; styrene 2.18 M): 0.05 | relative quantum yield φrel of decomposition ([3]; styrene 2.23 M): 0.06 | relative quantum yield φrel of decomposition ([3]; styrene 4.26 M): 0.08
